Measured values as given in patent publication EP3072956A1, “Selective culture medium for polymyxin-resistant, gram-negative bacteria” (priority 2015, dated 2016).

Key:
Assay in all cases: MIC determination by broth microdilution (MHB-CA, CLSI)
Type in all cases: cell-based
K. oxytoca = conditions: strain C24
Experimental: (§1) Determination of MIC values were performed by broth microdilution in Cation-Adjusted Mueller-Hinton broth (MHB-CA) according to the CLSI guidelines (Clinical and Laboratory Standards Institute). Polymyxin B and colistin (Sigma-Aldrich, Saint-Louis) were tested with or without Tween 80 over a range dilution from 0.12 to 128 µg/ml. The surfactant Tween 80, at a final concentration of 0.002%, prevents the binding of polymyxins to multi-array plastic panel. Actually, the use of Tween for determination of MIC of polymyxins is still debatable. MHB-CA broth and 5.10^5 CFU/ml of each tested strain were distributed in each well. Following the EUCAST breakpoints, strains were characterized as susceptible or resistant to polymyxins.

H. alvei = conditions: strain ER
Experimental: as §1

E. aerogenes = conditions: strain 36F8
Experimental: as §1

S. marcescens = conditions: strain Smar
Experimental: as §1

P. vulgaris = conditions: strain Pvul
Experimental: as §1

A. baumannii = tested on: A. baumannii
Experimental: as §1

S. maltophilia = tested on: S. maltophilia
Experimental: as §1

E. cloacae = tested on: E. cloacae
Experimental: as §1

B. cepacia = conditions: strain Bcep
Experimental: as §1

M. morganii = conditions: strain Mmor
Experimental: as §1

P. stuartii = conditions: strain Pstu
Experimental: as §1

E. coli = tested on: E. coli
Experimental: as §1

K. pneumoniae = tested on: K. pneumoniae
Experimental: as §1

P. mirabilis = conditions: strain Pmir
Experimental: as §1

C. freundii = tested on: C. freundii
Experimental: as §1

## polymyxin B
K. oxytoca; With Tween80
  MIC: 64 mg/L
K. oxytoca; Without Tween80
  MIC: 64 mg/L
H. alvei; With Tween80
  MIC: 16 mg/L
H. alvei; Without Tween80
  MIC: 8 mg/L
E. aerogenes; With Tween80
  MIC: 0.12 mg/L
E. aerogenes; Without Tween80
  MIC: 0.12 mg/L
S. marcescens; With Tween80
  MIC: >128 mg/L
S. marcescens; Without Tween80
  MIC: >128 mg/L
P. vulgaris; With Tween80
  MIC: >128 mg/L
P. vulgaris; Without Tween80
  MIC: >128 mg/L
A. baumannii; strain 38B9, With Tween80
  MIC: 0.25 mg/L
A. baumannii; strain 38B9, Without Tween80
  MIC: 0.5 mg/L
A. baumannii; strain Aba6, With Tween80
  MIC: 128 mg/L
A. baumannii; strain Aba6, Without Tween80
  MIC: 128 mg/L
A. baumannii; strain C105, With Tween80
  MIC: 0.12 mg/L
A. baumannii; strain C105, Without Tween80
  MIC: 0.5 mg/L
S. maltophilia; strain Sm2, With Tween80
  MIC: >128 mg/L
S. maltophilia; strain Sm2, Without Tween80
  MIC: >128 mg/L
S. maltophilia; strain SmA51, With Tween80
  MIC: 32 mg/L
S. maltophilia; strain SmA51, Without Tween80
  MIC: 32 mg/L
E. cloacae; strain 38A10, With Tween80
  MIC: 0.25 mg/L
E. cloacae; strain 38A10, Without Tween80
  MIC: 0.25 mg/L
E. cloacae; strain C28, With Tween80
  MIC: 16 mg/L
E. cloacae; strain C28, Without Tween80
  MIC: 16 mg/L
E. cloacae; strain C129, With Tween80
  MIC: 0.25 mg/L
E. cloacae; strain C129, Without Tween80
  MIC: 0.25 mg/L
E. cloacae; strain C144, With Tween80
  MIC: 0.12 mg/L
E. cloacae; strain C144, Without Tween80
  MIC: 0.25 mg/L
E. cloacae; strain HM, With Tween80
  MIC: >128 mg/L
E. cloacae; strain HM, Without Tween80
  MIC: >128 mg/L
B. cepacia; With Tween80
  MIC: >128 mg/L
B. cepacia; Without Tween80
  MIC: >128 mg/L
M. morganii; With Tween80
  MIC: >128 mg/L
M. morganii; Without Tween80
  MIC: >128 mg/L
P. stuartii; With Tween80
  MIC: >128 mg/L
P. stuartii; Without Tween80
  MIC: >128 mg/L
E. coli; strain 36A6, With Tween80
  MIC: 0.12 mg/L
E. coli; strain 36A6, Without Tween80
  MIC: 0.12 mg/L
E. coli; strain 36D7, With Tween80
  MIC: 0.12 mg/L
E. coli; strain 36D7, Without Tween80
  MIC: 0.12 mg/L
E. coli; strain 38D6, With Tween80
  MIC: 0.12 mg/L
E. coli; strain 38D6, Without Tween80
  MIC: 0.12 mg/L
E. coli; strain 27563, With Tween80
  MIC: 8 mg/L
E. coli; strain 27563, Without Tween80
  MIC: 16 mg/L
E. coli; strain 27837, With Tween80
  MIC: 8 mg/L
E. coli; strain 27837, Without Tween80
  MIC: 8 mg/L
E. coli; strain 27850, With Tween80
  MIC: 8 mg/L
E. coli; strain 27850, Without Tween80
  MIC: 8 mg/L
E. coli; strain 27852, With Tween80
  MIC: 4 mg/L
E. coli; strain 27852, Without Tween80
  MIC: 4 mg/L
E. coli; strain 28509, With Tween80
  MIC: 2 mg/L
E. coli; strain 28509, Without Tween80
  MIC: 2 mg/L
E. coli; strain 30742, With Tween80
  MIC: 4 mg/L
E. coli; strain 30742, Without Tween80
  MIC: 4 mg/L
E. coli; strain ATCC 25922, With Tween80
  MIC: 0.12 mg/L
E. coli; strain ATCC 25922, Without Tween80
  MIC: 0.25 mg/L
E. coli; strain C140, With Tween80
  MIC: 0.12 mg/L
E. coli; strain C140, Without Tween80
  MIC: 0.25 mg/L
E. coli; strain Eco OmpC-OmpF-, With Tween80
  MIC: 0.12 mg/L
E. coli; strain Eco OmpC-OmpF-, Without Tween80
  MIC: 0.125 mg/L
K. pneumoniae; strain 12E2, With Tween80
  MIC: 64 mg/L
K. pneumoniae; strain 12E2, Without Tween80
  MIC: 64 mg/L
K. pneumoniae; strain 13G2, With Tween80
  MIC: 64 mg/L
K. pneumoniae; strain 13G2, Without Tween80
  MIC: 64 mg/L
K. pneumoniae; strain 18J1, With Tween80
  MIC: 32 mg/L
K. pneumoniae; strain 18J1, Without Tween80
  MIC: 32 mg/L
K. pneumoniae; strain 36A4, With Tween80
  MIC: 0.25 mg/L
K. pneumoniae; strain 36A4, Without Tween80
  MIC: 0.25 mg/L
K. pneumoniae; strain 36A5, With Tween80
  MIC: 0.12 mg/L
K. pneumoniae; strain 36A5, Without Tween80
  MIC: 0.12 mg/L
K. pneumoniae; strain 36A7, With Tween80
  MIC: 0.5 mg/L
K. pneumoniae; strain 36A7, Without Tween80
  MIC: 0.5 mg/L
K. pneumoniae; strain 38B7, With Tween80
  MIC: 0.5 mg/L
K. pneumoniae; strain 38B7, Without Tween80
  MIC: 0.12 mg/L
K. pneumoniae; strain 75b, With Tween80
  MIC: 128 mg/L
K. pneumoniae; strain 75b, Without Tween80
  MIC: 128 mg/L
K. pneumoniae; strain 1118, With Tween80
  MIC: 32 mg/L
K. pneumoniae; strain 1118, Without Tween80
  MIC: 32 mg/L
K. pneumoniae; strain 1515, With Tween80
  MIC: 32 mg/L
K. pneumoniae; strain 1515, Without Tween80
  MIC: 32 mg/L
K. pneumoniae; strain AF1b, With Tween80
  MIC: 8 mg/L
K. pneumoniae; strain AF1b, Without Tween80
  MIC: 8 mg/L
K. pneumoniae; strain BICb, With Tween80
  MIC: 128 mg/L
K. pneumoniae; strain BICb, Without Tween80
  MIC: 128 mg/L
K. pneumoniae; strain C1, With Tween80
  MIC: 64 mg/L
K. pneumoniae; strain C1, Without Tween80
  MIC: 128 mg/L
K. pneumoniae; strain C3, With Tween80
  MIC: 16 mg/L
K. pneumoniae; strain C3, Without Tween80
  MIC: 32 mg/L
K. pneumoniae; strain C7, With Tween80
  MIC: >128 mg/L
K. pneumoniae; strain C7, Without Tween80
  MIC: >128 mg/L
K. pneumoniae; strain C11, With Tween80
  MIC: 64 mg/L
K. pneumoniae; strain C11, Without Tween80
  MIC: 128 mg/L
K. pneumoniae; strain C12, With Tween80
  MIC: 64 mg/L
K. pneumoniae; strain C12, Without Tween80
  MIC: 128 mg/L
K. pneumoniae; strain C16, With Tween80
  MIC: 64 mg/L
K. pneumoniae; strain C16, Without Tween80
  MIC: 32 mg/L
K. pneumoniae; strain C21, With Tween80
  MIC: 128 mg/L
K. pneumoniae; strain C21, Without Tween80
  MIC: 128 mg/L
K. pneumoniae; strain C22, With Tween80
  MIC: 64 mg/L
K. pneumoniae; strain C22, Without Tween80
  MIC: 64 mg/L
K. pneumoniae; strain C25, With Tween80
  MIC: 32 mg/L
K. pneumoniae; strain C25, Without Tween80
  MIC: 64 mg/L
K. pneumoniae; strain C26, With Tween80
  MIC: 128 mg/L
K. pneumoniae; strain C26, Without Tween80
  MIC: 128 mg/L
K. pneumoniae; strain C27, With Tween80
  MIC: >128 mg/L
K. pneumoniae; strain C27, Without Tween80
  MIC: >128 mg/L
K. pneumoniae; strain C112, With Tween80
  MIC: 0.25 mg/L
K. pneumoniae; strain C112, Without Tween80
  MIC: 0.25 mg/L
K. pneumoniae; strain C115, With Tween80
  MIC: 0.12 mg/L
K. pneumoniae; strain C115, Without Tween80
  MIC: 0.5 mg/L
K. pneumoniae; strain C130, With Tween80
  MIC: 0.5 mg/L
K. pneumoniae; strain C130, Without Tween80
  MIC: 0.25 mg/L
K. pneumoniae; strain C132, With Tween80
  MIC: 0.5 mg/L
K. pneumoniae; strain C132, Without Tween80
  MIC: 0.25 mg/L
K. pneumoniae; strain Kp OmpK3 5-OmpK3 6-, With Tween80
  MIC: 0.12 mg/L
K. pneumoniae; strain Kp OmpK3 5-OmpK3 6-, Without Tween80
  MIC: 0.125 mg/L
K. pneumoniae; strain Sa, With Tween80
  MIC: 64 mg/L
K. pneumoniae; strain Sa, Without Tween80
  MIC: 64 mg/L
K. pneumoniae; strain T1b, With Tween80
  MIC: 64 mg/L
K. pneumoniae; strain T1b, Without Tween80
  MIC: 64 mg/L
K. pneumoniae; strain T4, With Tween80
  MIC: 32 mg/L
K. pneumoniae; strain T4, Without Tween80
  MIC: 32 mg/L
K. pneumoniae; strain T5, With Tween80
  MIC: 32 mg/L
K. pneumoniae; strain T5, Without Tween80
  MIC: 32 mg/L
P. mirabilis; With Tween80
  MIC: >128 mg/L
P. mirabilis; Without Tween80
  MIC: >128 mg/L
C. freundii; strain 38B2, With Tween80
  MIC: 0.5 mg/L
C. freundii; strain 38B2, Without Tween80
  MIC: 0.5 mg/L
C. freundii; strain C136, With Tween80
  MIC: 0.25 mg/L
C. freundii; strain C136, Without Tween80
  MIC: 0.5 mg/L
